Source: patent US20240383875A1, “Benzimidazole Pyridine Derivatives” (Hoffmann-La Roche Inc., priority 2022, published 2024)
pIC50: −log10 of the molar value.

Key:
Assay type in all cases: biochemical
SIK2 = SIK2 (Homo sapiens, UniProt Q9H0K1); assay: Enzymatic activity assay SIK2, RapidFire mass spectrometry (phosphorylation of CHK-peptide); details: RapidFire MS, inhibition of SIK2; read-out: SIK2 RF IC50
How it was run: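 Read-out is the summed phospho-species fraction of CHK-peptide by RapidFire mass spectrometry, normalized between DMSO and 1 μM YKL-05-099. The reaction used 0.5 nM SIK2, 100 μM ATP and 10 μM peptide solutions in HEPES pH 7.0/10 mM magnesium acetate for 45 min at ambient temperature.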

SIK1 = SIK1 (Homo sapiens, UniProt P57059); assay: Enzymatic activity assay SIK1, RapidFire mass spectrometry (phosphorylation of CHK-peptide); details: RapidFire MS, inhibition of SIK1; read-out: SIK1 RF IC50
SIK1, sequence (P57059 whole entry): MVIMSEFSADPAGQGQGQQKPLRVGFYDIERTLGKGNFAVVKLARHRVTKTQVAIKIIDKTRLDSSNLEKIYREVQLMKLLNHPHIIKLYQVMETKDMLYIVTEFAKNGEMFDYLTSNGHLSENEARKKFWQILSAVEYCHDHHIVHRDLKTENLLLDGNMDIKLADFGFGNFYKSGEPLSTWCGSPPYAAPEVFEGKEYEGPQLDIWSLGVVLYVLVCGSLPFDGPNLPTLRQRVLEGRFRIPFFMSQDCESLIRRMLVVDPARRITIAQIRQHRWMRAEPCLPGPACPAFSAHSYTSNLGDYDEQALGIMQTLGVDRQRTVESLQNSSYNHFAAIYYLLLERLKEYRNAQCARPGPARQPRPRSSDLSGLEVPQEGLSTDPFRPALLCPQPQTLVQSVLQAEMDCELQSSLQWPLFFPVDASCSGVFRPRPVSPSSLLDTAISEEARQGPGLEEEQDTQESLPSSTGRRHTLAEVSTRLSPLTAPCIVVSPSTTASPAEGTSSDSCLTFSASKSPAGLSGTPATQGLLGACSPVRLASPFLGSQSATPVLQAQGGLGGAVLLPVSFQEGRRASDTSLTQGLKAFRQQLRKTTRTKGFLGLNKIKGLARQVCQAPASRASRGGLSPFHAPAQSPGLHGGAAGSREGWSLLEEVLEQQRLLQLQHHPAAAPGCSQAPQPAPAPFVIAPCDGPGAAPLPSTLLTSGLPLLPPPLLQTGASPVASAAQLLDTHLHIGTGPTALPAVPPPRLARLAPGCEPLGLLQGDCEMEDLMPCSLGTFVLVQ
How it was run: (§1)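 Human SIK1/2/3, 5/0.5/1.5 nM; 12.5 mM HEPES pH 7.0, 10 mM Mg acetate, 0.005% BSA. 30 min cpd pre-inc, + CHK-peptide (10 μM soln) + ATP (100 μM soln), 45 min RT. Formic acid stop; RF-MS phospho ratio; IC50.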

SIK3 = SIK3 (Homo sapiens, UniProt Q9Y2K2); assay: Enzymatic activity assay SIK3, RapidFire mass spectrometry (phosphorylation of CHK-peptide); details: RapidFire MS, inhibition of SIK3; read-out: SIK3 RF IC50
SIK3, sequence (Q9Y2K2 whole entry): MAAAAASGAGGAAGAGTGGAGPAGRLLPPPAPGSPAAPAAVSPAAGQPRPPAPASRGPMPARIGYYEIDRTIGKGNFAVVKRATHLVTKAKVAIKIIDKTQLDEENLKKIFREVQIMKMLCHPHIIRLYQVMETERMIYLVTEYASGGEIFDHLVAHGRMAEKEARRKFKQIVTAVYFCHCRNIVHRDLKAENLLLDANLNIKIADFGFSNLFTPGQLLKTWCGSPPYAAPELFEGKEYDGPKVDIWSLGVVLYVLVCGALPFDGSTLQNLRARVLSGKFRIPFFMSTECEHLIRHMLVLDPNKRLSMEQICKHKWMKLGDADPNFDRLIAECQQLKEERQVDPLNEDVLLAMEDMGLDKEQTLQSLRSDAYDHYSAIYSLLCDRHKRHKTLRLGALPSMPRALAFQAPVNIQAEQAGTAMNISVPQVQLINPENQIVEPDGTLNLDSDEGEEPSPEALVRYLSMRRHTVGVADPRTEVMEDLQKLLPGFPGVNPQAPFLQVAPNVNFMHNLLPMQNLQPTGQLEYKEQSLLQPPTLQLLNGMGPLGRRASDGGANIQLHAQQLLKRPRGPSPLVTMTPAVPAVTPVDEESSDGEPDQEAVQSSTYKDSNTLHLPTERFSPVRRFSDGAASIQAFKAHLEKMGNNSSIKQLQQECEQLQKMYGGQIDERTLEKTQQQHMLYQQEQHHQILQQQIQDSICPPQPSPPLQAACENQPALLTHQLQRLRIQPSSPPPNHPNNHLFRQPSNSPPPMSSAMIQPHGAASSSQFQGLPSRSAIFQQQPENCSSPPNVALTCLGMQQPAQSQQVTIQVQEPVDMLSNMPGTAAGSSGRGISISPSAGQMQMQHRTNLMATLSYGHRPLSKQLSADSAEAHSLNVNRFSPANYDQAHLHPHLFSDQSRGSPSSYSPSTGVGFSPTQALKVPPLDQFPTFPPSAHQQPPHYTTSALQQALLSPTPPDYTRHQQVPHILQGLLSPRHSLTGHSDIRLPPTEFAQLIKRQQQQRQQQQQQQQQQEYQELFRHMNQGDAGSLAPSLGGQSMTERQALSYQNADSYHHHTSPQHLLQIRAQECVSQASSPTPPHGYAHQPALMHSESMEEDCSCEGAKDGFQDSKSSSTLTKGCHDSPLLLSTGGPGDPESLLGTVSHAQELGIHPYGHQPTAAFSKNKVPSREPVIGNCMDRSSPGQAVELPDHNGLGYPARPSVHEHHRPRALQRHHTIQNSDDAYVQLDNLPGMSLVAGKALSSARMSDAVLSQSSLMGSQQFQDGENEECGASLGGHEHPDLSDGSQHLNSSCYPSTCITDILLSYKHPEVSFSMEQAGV
How it was run: as §1

SIK2, sequence (Q9H0K1 whole entry): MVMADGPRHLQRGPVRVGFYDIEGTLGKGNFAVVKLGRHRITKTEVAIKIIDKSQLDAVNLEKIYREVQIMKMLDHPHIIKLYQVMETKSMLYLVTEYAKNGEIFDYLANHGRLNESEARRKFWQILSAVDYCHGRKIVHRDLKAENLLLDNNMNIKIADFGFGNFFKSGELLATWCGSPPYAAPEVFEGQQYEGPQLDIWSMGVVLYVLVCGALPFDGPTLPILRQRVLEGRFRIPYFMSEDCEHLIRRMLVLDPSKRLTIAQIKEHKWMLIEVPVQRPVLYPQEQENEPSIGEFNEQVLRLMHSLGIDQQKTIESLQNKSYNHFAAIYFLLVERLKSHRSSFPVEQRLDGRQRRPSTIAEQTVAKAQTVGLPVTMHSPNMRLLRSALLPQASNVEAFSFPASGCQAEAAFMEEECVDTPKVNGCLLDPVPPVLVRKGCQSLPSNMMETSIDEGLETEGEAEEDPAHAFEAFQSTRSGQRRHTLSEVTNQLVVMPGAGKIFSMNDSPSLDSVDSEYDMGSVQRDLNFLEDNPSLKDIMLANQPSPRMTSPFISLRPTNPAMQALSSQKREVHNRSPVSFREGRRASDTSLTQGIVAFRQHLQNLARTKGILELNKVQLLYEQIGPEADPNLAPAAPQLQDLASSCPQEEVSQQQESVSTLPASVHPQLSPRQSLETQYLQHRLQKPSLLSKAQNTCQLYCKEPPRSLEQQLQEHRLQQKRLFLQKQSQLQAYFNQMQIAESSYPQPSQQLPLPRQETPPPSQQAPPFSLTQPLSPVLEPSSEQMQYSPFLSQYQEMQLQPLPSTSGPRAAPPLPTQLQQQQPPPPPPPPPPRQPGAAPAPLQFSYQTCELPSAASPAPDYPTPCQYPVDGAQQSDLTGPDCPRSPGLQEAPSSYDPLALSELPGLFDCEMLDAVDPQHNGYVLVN

Molecule	pIC50 (SIK2)	pIC50 (SIK1)	pIC50 (SIK3)
Cc1ccc(Nc2ccc3c(c2)ncn3-c2ccc(C(C)O)c(-n3nc(C(F)F)cc3C)n2)nn1 (stereo not drawn) [Example 129, 1-[2-[3-(Difluoromethyl)-5-methyl-pyrazol-1-yl]-6-[5-[(6-methylpyridazin-3-yl)amino]benzimidazol-1-yl]-3-pyridyl]ethanol; formic acid]	8.41	6.33	8.92
Cc1ccc(Nc2ccc3c(c2)ncn3-c2ccc(C(C)O)c(-c3c(C#N)cnn3C)n2)nn1 (stereo not drawn) [Example 76, 5-[3-(1-Hydroxyethyl)-6-[5-[(6-methylpyridazin-3-yl)amino]benzimidazol-1-yl]-2-pyridyl]-1-methyl-pyrazole-4-carbonitrile]	6.49	5.13	7.18
Cc1cc(C#N)nn1-c1nc(-n2cnc3cc(C#N)ccc32)ccc1C(C)O (stereo not drawn) [Example 263, 1-[6-(3-Cyano-5-methyl-pyrazol-1-yl)-5-(1-hydroxyethyl)-2-pyridyl]benzimidazole-5-carbonitrile]	6.84	6.48	6.80
1-[6-[6-fluoro-5-[(5-fluoro-6-methyl-3-pyridyl)amino] benzimidazol-1-yl]-3-(1-hydroxyethyl)-2-pyridyl]-5-methyl-pyrazole-3-carbonitrile [Example 389]	8.10	7.38	8.29
Cc1ccc(Nc2ccc3c(c2)ncn3-c2ccc(C(C)O)c(-c3occc3C#N)n2)nn1 (stereo not drawn) [Example 226, 2-[3-(1-Hydroxyethyl)-6-[5-[(6-methylpyridazin-3-yl)amino]benzimidazol-1-yl]-2-pyridyl]furan-3-carbonitrile]	7.21	< 4.52	7.66
CNc1ncccc1-c1nc(-n2cnc3cc(Nc4ccc(C)nn4)ccc32)ccc1C(C)O (stereo not drawn) [Example 179, 1-[2-[2-(Methylamino)-3-pyridyl]-6-[5-[(6-methylpyridazin-3-yl)amino]benzimidazol-1-yl]-3-pyridyl]ethanol; formic acid]	6.38	< 4.52	7.13
COc1cc2ncn(-c3ccc(C(O)C4CC4)c(-c4ccc(F)cc4OC)n3)c2cc1OC (stereo not drawn) [Example 23, Cyclopropyl(6-(5,6-dimethoxy-1H-benzo[d]imidazol-1-yl)-2-(4-fluoro-2-methoxyphenyl)pyridin-3-yl)methanol]	5.41	5.44	5.05
Cc1ccc(Nc2ccc3c(c2)ncn3-c2ccc(C(C)O)c(-c3ccncc3C)n2)nn1 (stereo not drawn) [Example 162, 1-[6-[5-[(6-Methylpyridazin-3-yl)amino]benzimidazol-1-yl]-2-(3-methyl-4-pyridyl)-3-pyridyl]ethanol]	6.70	5.07	7.33
Cc1ccc(Nc2cc3ncn(-c4ccc(C(C)O)c(-n5nc(C#N)cc5C)n4)c3cc2OC2COC2)nn1 (stereo not drawn) [Example 282, 1-[3-(1-hydroxyethyl)-6-[5-[(6-methylpyridazin-3-yl)amino]-6-(oxetan-3-yloxy)benzimidazol-1-yl]-2-pyridyl]-5-methyl-pyrazole-3-carbonitrile]	9.40	8.15	9.10
Cc1cc(C#N)nn1-c1nc(-n2cnc3cc(Nc4ccnnc4)ccc32)ccc1C(C)O (stereo not drawn) [Example 87, 1-[3-(1-Hydroxyethyl)-6-[5-(pyridazin-4-ylamino)benzimidazol-1-yl]-2-pyridyl]-5-methyl-pyrazole-3-carbonitrile]	8.02	7.66	8.54
Cc1cc(C#N)nn1-c1nc(-n2cnc3cc(Nc4ccc(C5COC5)nn4)ccc32)ccc1C(C)O (stereo not drawn) [Example 228, 1-[3-(1-Hydroxyethyl)-6-[5-[[6-(oxetan-3-yl)pyridazin-3-yl]amino]benzimidazol-1-yl]-2-pyridyl]-5-methyl-pyrazole-3-carbonitrile]	9.00	7.04	9.05
CCC(O)c1ccc(-n2cnc3cc(OC)c(OC)cc32)nc1-c1ccc(F)cc1OC (stereo not drawn) [Example 18, 1-(6-(5,6-Dimethoxy-1H-benzo[d]imidazol-1-yl)-2-(4-fluoro-2-methoxyphenyl)pyridin-3-yl)propan-1-ol]	6.01	6.00	5.54

Other lines, results leading:

pIC50 (SIK2)	pIC50 (SIK1)	pIC50 (SIK3)	Molecule
7.98	6.24	9.10	Cc1ccc(Nc2ccc3c(c2)ncn3-c2ccc(C(C)O)c(N3CC4CC3C(F)(F)C4)n2)nn1 (stereo not drawn) [Example 324, 1-[2-(6,6-difluoro-2-azabicyclo[2.2.1]heptan-2-yl)-6-[5-[(6-methylpyridazin-3-yl)amino]benzimidazol-1-yl]-3-pyridyl]ethanol]
9.15	6.39	8.96	Cc1ccc(Nc2cc3ncn(-c4ccc(C(C)O)c(-c5cn(CC(F)(F)F)nc5C)n4)c3cc2F)nn1 (stereo not drawn) [Example 302, 1-[6-[6-fluoro-5-[(6-methylpyridazin-3-yl)amino]benzimidazol-1-yl]-2-[3-methyl-1-(2,2,2-trifluoroethyl)pyrazol-4-yl]-3-pyridyl]ethanol]
9.70	9.00	9.40	Cc1cc(C#N)nn1-c1nc(-n2cnc3cc(F)c(Nc4ccc(F)c(F)c4F)cc32)ccc1C(C)O (stereo not drawn) [Example 379, 1-[6-[5-fluoro-6-(2,3,4-trifluoroanilino)benzimidazol-1-yl]-3-(1-hydroxyethyl)-2-pyridyl]-5-methyl-pyrazole-3-carbonitrile]
9.10	6.74	9.15	Cc1cc(OC(F)F)nn1-c1nc(-n2cnc3cc(Nc4cccnn4)c(F)cc32)ccc1[C@H](C)O [Example 373, (1S)-1-[2-[3-(difluoromethoxy)-5-methyl-pyrazol-1-yl]-6-[6-fluoro-5-(pyridazin-3-ylamino)benzimidazol-1-yl]-3-pyridyl]ethanol]
8.20	5.95	8.41	Cc1ccc(Nc2cc3ncn(-c4ccc(CO)c(-n5nc(C#N)cc5C)n4)c3cc2F)nn1 [Example 347, 1-[6-[6-fluoro-5-[(6-methylpyridazin-3-yl)amino]benzimidazol-1-yl]-3-(hydroxymethyl)-2-pyridyl]-5-methyl-pyrazole-3-carbonitrile]
8.02	7.66	7.79	Cc1cc(C#N)nn1-c1nc(-n2cnc3cc(N4CCC[C@H]4C#N)ccc32)ccc1C(C)O (stereo partly drawn) [Example 342, 1-[6-[5-[(2S)-2-cyanopyrrolidin-1-yl]benzimidazol-1-yl]-3-(1-hydroxyethyl)-2-pyridyl]-5-methyl-pyrazole-3-carbonitrile]
7.17	5.78	8.11	Cc1ccc(Nc2ccc3c(c2)ncn3-c2ccc(C(C)O)c(N3CC4CC(F)(F)C4C3)n2)nn1 (stereo not drawn) [Example 326, 1-[2-(6,6-difluoro-3-azabicyclo[3.2.0]heptan-3-yl)-6-[5-[(6-methylpyridazin-3-yl)amino]benzimidazol-1-yl]-3-pyridyl]ethanol]
9.52	7.89	9.22	COc1cc2c(cc1Nc1cc3c(nn1)CCOC3)ncn2-c1ccc(C(C)O)c(-n2nc(C#N)cc2C)n1 (stereo not drawn) [Example 394, 1-[6-[5-(7,8-dihydro-5~{H}-pyrano[4,3-c]pyridazin-3-ylamino)-6-methoxy-benzimidazol-1-yl]-3-(1-hydroxyethyl)-2-pyridyl]-5-methyl-pyrazole-3-carbonitrile]
